What was measured:
[1] = Surface plasmon resonance of NBD-Linker incorporation into PFC nanoparticles; format: binding; details: NBD-Linker on immobilized PFC nanoparticles, two-state model; read-out: dissociation constant of the entire process
Protocol: The kinetics of NBD-Linker incorporation into lipid monolayers of PFC nanoparticles was studied by surface plasmon resonance (SPR). SPR detects change in the […] of a surface (Biacore-X 100 and carboxymethylated dextran chip L1 from Biacore Inc, Piscataway, N.J.). A uniform lipid monolayer on a L1 chip was created by injecting PFC nanoparticles (3 μl/min) for 30 minutes. Loosely deposited nanoparticles were removed by performing extra washing steps after immobilization to ensure a stable baseline. Complete coverage was confirmed by injecting the bovine serum albumin (1 mg/ml in PBS) at 15 μl/min for 2 minutes. Different peptides in selected concentrations were injected at a flow rate of 30 μl/min for 1 minute. At the end of each experiment the chip was regenerated by two consecutive injections of 3-[(3-cholamidopropyl)dimethylammonio]-1-propanesulfonate, CHAPS (50 μl, 100 μl/min). The data were analyzed with BiaEvaluation software (Biacore Inc, Piscataway, N.J.). A two-state model, [17].
To investigate the release rate of the NBD-Linker from the PFC nanoparticles, surface plasma resonance experiments were performed with a Biacore X 100, which allows quantitative analysis of interaction between peptide and lipid membrane. […] We consistently recorded two populations of peptides in the peptide-lipid interactions. […]

[2] = Dynamic light scattering size and zeta potential of peptide-loaded PFOB/PFC nanoparticles; format: physicochemical; details: PFC nanoparticles without and with various amount of peptide loading
Protocol: The size distributions of the nanoparticles with or without the linker peptide were analyzed by dynamic light scattering (Brookhaven Instruments Corp., Holtsville, N.Y.). Zeta potential (ζ) values were determined with a Brookhaven Instruments PALS Zeta Potential Analyzer (Brookhaven Instruments Corp., Holtsville, N.Y.). Data were acquired in the phase-analysis light scattering (PALS) mode following solution equilibration at 25° C. […] This change further confirms the insertion of the linker peptide 1 into the PFOB nanoparticles. Furthermore, the structural integrity of linker peptide 1 inserted PFOB nanoparticles was confirmed by transmission electron microscopy.
The size distributions of the nanoparticles with or without cargo incorporated were analyzed by dynamic light scattering (Brookhaven Instruments Corp., Holtsville, N.Y.). The size distribution was plotted by particle number. Zeta potential (ζ) values were determined with a Brookhaven Instruments PALS Zeta Potential Analyzer (Brookhaven Instruments Corp., Holtsville, N.Y.). Data were acquired in the phase-analysis light scattering (PALS) mode following solution equilibration at 25° C.

[3] = Fluorescence correlation spectroscopy (FCS) diffusion time; format: physicochemical; details: mean±STD (n=3)
Text: FCS is a quantitative technique, which detects fluorescence intensity fluctuations as fluorescent molecules diffuse through a small observation volume (<1 femtoliter). Statistical analysis of these fluorescence intensity fluctuations allows simultaneous determination of the number of fluorescent species in the system and their mobility.
In our case the observation volume is defined by the focal volume of a laser scanning microscope, while the statistical analysis of the intensity trace is calculated as follows: […]
The correlation curve obtained from the experiment is fitted with a mathematical function which describes the fluorescence intensity fluctuations in the observation volume according to Brownian diffusion and it also accounts for the photophysical characteristics of the dye:
where N is the average number of fluorescent particles in the observation volume, T is the fraction of fluorophores in the triplet state, τT is the lifetime of the triplet state of the fluorophore, τD is the characteristic diffusion time of the fluorophore, ω0 the waist radius of the laser focus. […]
The waist of the focus ω0 was determined by fitting the autocorrelation curve obtained in the same experimental conditions using free Alexa Fluor 488 [22]. In the case of labeled peptide binding to the nanoparticles the correlation curves were analyzed using the two component model as was described previously.

Compound	Kd [1]	mean diameters [2]	diffusion time [3]
NBD peptide (TALDWSWLQTE) fused onto the N-terminal of linker peptide (VLTTGLPALISWIKRKRQQ) with two glycines as a spacer [NBD-Linker]	140 nM	equivalent	–
N=c1ccc2c(-c3ccc(C(=O)O)cc3C(=O)O)c3ccc(N)c(S(=O)(=O)O)c3oc-2c1S(=O)(=O)O [Alexa Fluor 488]	–	–	35.8±1.4 μsec

— patent publication US8617516B2, “Universal anchor peptide for nanoparticles” (Washington University, priority 2008, dated 2013)
